Measurements published in patent US20050197338A1, “Substituted pyrazole urea compounds for the treatment of inflammation” (priority 2003, published 2005).

Target: T1, human IKK-2 (rhIKK-2 homodimer) (Homo sapiens, UniProt O14920)
T1 construct: FLAG (DYKDDDDKD) (C); made in house; host or cells: insect cells (baculovirus, pFastBac)
T1 sequence (O14920 1-756): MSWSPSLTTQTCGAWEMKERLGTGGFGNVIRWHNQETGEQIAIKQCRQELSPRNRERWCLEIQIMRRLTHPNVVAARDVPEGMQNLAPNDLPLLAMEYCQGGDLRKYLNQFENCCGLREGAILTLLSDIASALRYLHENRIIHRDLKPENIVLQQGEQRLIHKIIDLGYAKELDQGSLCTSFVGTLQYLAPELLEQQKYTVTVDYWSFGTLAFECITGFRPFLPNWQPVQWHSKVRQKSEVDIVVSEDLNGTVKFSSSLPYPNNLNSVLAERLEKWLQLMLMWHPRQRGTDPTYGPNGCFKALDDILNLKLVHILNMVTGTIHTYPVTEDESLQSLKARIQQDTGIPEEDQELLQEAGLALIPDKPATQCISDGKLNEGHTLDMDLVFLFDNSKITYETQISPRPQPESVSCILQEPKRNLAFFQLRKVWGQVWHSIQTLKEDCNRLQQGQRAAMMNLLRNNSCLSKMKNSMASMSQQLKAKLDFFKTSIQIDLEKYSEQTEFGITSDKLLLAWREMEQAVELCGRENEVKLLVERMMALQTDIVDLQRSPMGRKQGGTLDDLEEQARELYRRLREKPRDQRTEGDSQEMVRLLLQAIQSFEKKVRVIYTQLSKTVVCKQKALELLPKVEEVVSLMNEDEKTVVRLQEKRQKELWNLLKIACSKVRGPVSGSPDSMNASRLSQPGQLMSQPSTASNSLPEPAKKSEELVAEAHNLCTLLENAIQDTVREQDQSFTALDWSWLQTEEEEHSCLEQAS
Experiment: IKK-2 Resin Enzyme Assay (Human IKK-2 Enzyme Assay)
Type: biochemical
Details: human IKK-2, resin enzyme assay; read-out: IC50 (μM) hIKK-2
Outline: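 C-terminally FLAG-tagged human IKK-2 homodimer, baculovirus-expressed in insect cells and anti-FLAG purified. Reaction mix: 5 μM biotinylated IκBα peptide (Ser32/Ser36 region), 1 μM ATP with [γ-33P]ATP, 2 mM MgCl2, 2 mM MnCl2, 10 mM NaF, 1 mM DTT, 25 mM HEPES pH 7.6. Incubated 30 min at 25 °C; IC50 derived.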

IC50 [µM]	SMILES
0.378	NC(=O)Nc1cn(-c2ccc(Br)c(F)c2)nc1C(N)=O [Example 225, 4-[(aminocarbonyl)amino]-1-(4-bromo-3-fluorophenyl)-1H-pyrazole-3-carboxamide]
0.457	NC(=O)Nc1cn(-c2ccc(-c3cccc(O)c3)cc2F)nc1C(N)=O [Example 247, 4-[(aminocarbonyl)amino]-1-(3-fluoro-3′-hydroxy-1,1′-biphenyl-4-yl)-1H-pyrazole-3-carboxamide]
